Where two headings read alike, the source gives them in different places.
Legend:
[1] = system: β-catenin-dependent Wnt-pathway; test: TopFlash luciferase reporter assay, CHIR99021-stimulated, HCC1395; format: cell-based; conditions: for Emax / IC50: Homo sapiens; for Emax: read-out: HCC1395 TopFlash Efficacy; for TopFlash activity in words: HCC1395, CHIR99021; for GSK HCC1395 Comments: Table S2
Excerpt: Both stimulations abolish formation of the destruction complex, a multiprotein complex consisting of Axin, adenomatous polyposis coli (APC), glycogen synthase kinase three beta (GSK3β), and casein kinase one alpha (CK1α). Upon inactivation of the complex, β-catenin accumulates in the cytoplasm and translocates into the nucleus where it interacts with transcription factors. These downstream events are quantified by a Luciferase transcription-based readout assay (TopFlash assay).

in vitro = conditions: human
Method: (§1) The simplicity of the scaffold combined with synthetic accessibility allows building a library of compounds and performing structure activity relationship (SAR) studies of the three main parts of the molecule: the top part, the linker and the core (Figure 2).
(§2) The synthesized compounds were used to explore SAR of three defined areas of investigation (Figure 2). All compounds were tested in the HCC1395 TNBC cell line using the GSK3β inhibitor to induce β-catenin signaling since 4a acted downstream of GSK3β (Figure 2). Both inhibition of β-catenin signaling measured by the TopFlash reporter and cytotoxicity measured by the Renilla reporter were assessed.
(§3) The Wnt3a or CHIR99021-stimulated luciferase activity in HCC1395 TNBC cell line stably transfected with the TopFlash reporter was analyzed essentially as described for the BT-20 TNBC cell line ([Shaw et al., 2019b]; [Koval et al., 2021]). Reporter cells were seeded at 10,000 cells/well in a white opaque 384-well plate in the final volume of 20 μl of DMEM medium supplemented with 10% FCS. The cells were maintained incubated at 37°C, 5% CO2 overnight for attachment. Subsequently, they were transfected by a plasmid encoding constitutively expressed Renilla luciferase under the CMV promoter overall as described in the manufacturer’s protocol using 12 μg/ml of DNA and 40 μl/ml XtremeGENE nine reagent. The next day, the medium in each well was replaced with a 10 μl of fresh medium containing compound of interest, and, after 1 h of preincubation with the compounds, additional 10 μl of medium supplemented with Wnt3a [purified as described ([Willert et al., 2003]; [Koval and Katanaev, 2011])] or CHIR99021 were added creating respective final concentrations of 2.5 μg/ml or 5 μM of each. In case of other signal transduction reporters, no additional stimulation was performed. Compound dilutions were prepared by serial dilution in DMSO and diluted with the amount of medium necessary to obtain their final concentrations indicated on the figures and tables and maintain concentration of DMSO of 0.5% in all assay points. After overnight incubation, the supernatant in each well was removed, and the luciferase activity was measured as described ([Dyer et al., 2000]; [Huber et al., 2021]; [Pellissier et al., 2021]). The culture medium was completely removed from all wells of the plate. Finally, the luciferase activity of the firefly and Renilla luciferases was detected sequentially in individual wells of a 384-well plate through injection of corresponding measurement solutions and immediate reading (400 ms integration time) in Infinite M Plex multifunctional plate reader with injection module.

BT-20 TNBC cell line = test: MTT survival assay BT-20; format: cell-based; conditions: Homo sapiens, BT-20; Table S2; read-out: MTT BT-20 IC50
Method: (§4) Indicated TNBC cell lines were detached and resuspended at 120,000 cells/ml and added into each well of a transparent 384-well plate in the final volume of 20 µl/well. The cells were maintained in DMEM containing 10% FBS at 37°C, 5% CO2 overnight. Next day, the medium in each well was replaced by 40 μl of the fresh one containing the indicated concentrations of compounds. In case of drug combination experiments, each compound dilution was delivered in corresponding well in 20 μl of medium. […] After incubation for 3–4 days, depending on the cell line, the medium in each well was replaced by 25 μl of 0.5 mg/ml Thiazolyl blue solution in 1xPBS following by incubation for 3 h at 37°C. Then the solution was removed and 25 μl DMSO was added into each well. Absorbance at 510 nm was measured in a Tecan Infinite M200 PRO plate reader.

HCC1395 TNBC cell line = test: MTT survival assay HCC1395; format: cell-based; conditions: Homo sapiens, HCC1395; Table S2; read-out: MTT HCC-1395 IC50
Method: as §4

[2] = system: MDA-MB-231 TNBC cell line; test: MTT survival assay MDA-MB-231; format: cell-based; conditions: Table S2; for IC50: Homo sapiens, MDA-MB-231, read-out: MTT MDA-MB-231 IC50
Method: as §4

HCC1806 TNBC cell line = test: MTT survival assay HCC1806; format: cell-based; conditions: for IC50: Homo sapiens, HCC1806
Method: as §4

[3] = system: MDA-MB-468 TNBC cell line; test: MTT survival assay MDA-MB-468; format: cell-based; conditions: Homo sapiens, MDA-MB-468; Table S2
Method: as §4

[4] = system: non-cancerous breast epithelial cell line MCF10a; test: MTT survival assay MCF10a; format: cell-based; conditions: Table S2; for IC50: Homo sapiens, MCF-10A, read-out: MTT MCF10 IC50
Method: as §4

HCC1395 cells = test: in vitro; conditions: for HCC1395 Cytotoxicity Efficacy: human
Method: as §1, §2, §3

[5] = HCC1395, HCC1395, stimulation with CHIR99021 (GSK3β inhibitor)
[6] = HCC1395, HCC1395, stimulation with CHIR99021 (GSK3β inhibitor), read-out: HCC1395 TopFlash IC50
[7] = Table S2, read-out: MTT HCC1806 IC50
[8] = HCC1395, Table S2, TopFlash, GSK3β inhibitor stimulation, read-out: GSK HCC1395 IC50

Compound | IC50 [1, 6] | TopFlash activity in words [1] | IC50 (in vitro; HCC1395 Cytotoxicity IC50) | GSK HCC1395 Comments [1] | further results
c1ccc(Nc2ncnc3sccc23)cc1 [Compound 5f, N-phenylthieno[2,3-d]pyrimidin-4-amine] | > 50 µM | inactive | – | – | –
COc1ccccc1CNc1ncnc2ccccc12 [Compound 9a, N-(2-methoxybenzyl)quinazolin-4-amine] | – | – | 29 ± 14.5 µM | Toxic | HCC1395 Cytotoxicity Efficacy (HCC1395 cells): 100 ± 0%
COc1cccc(CNc2nccc3ccccc23)c1 [Compound 13, N-(3-methoxybenzyl)isoquinolin-1-amine] | > 100 µM | – | > 100 µM | – | IC50 [1, 8]: > 50 µM; GSK HCC1395 Renilla Comments (HCC1395 cells): Non-toxic
N#Cc1cccc(CNc2ncnc3sccc23)c1 [Compound 4l, 3-((thieno[2,3-d]pyrimidin-4-ylamino)methyl)benzonitrile] | – | – | 10 ± 3.36 µM | Toxic | HCC1395 Cytotoxicity Efficacy (HCC1395 cells): 32.2 ± 10.5%
Cc1ccc(C(C)Nc2ncnc3sccc23)cc1 (centres unmarked) [Compound 5e, N-(1-(p-tolyl)ethyl)thieno[2,3-d]pyrimidin-4-amine] | 0.63 ± 0.21 µM | – | > 50 µM | – | Emax [1, 5]: 47 ± 9.67%
Clc1ccc(CCNc2ncnc3ccccc23)cc1 [Compound 9g, N-(4-chlorophenethyl)quinazolin-4-amine] | – | – | – | Toxic | IC50 (in vitro): 13 ± 1.45 µM; HCC1395 Cytotoxicity Efficacy (HCC1395 cells): 100 ± 0%
CC(Nc1ncnc2ccccc12)c1ccc(F)cc1 (centres unmarked) [Compound 9h, N-(1-(4-fluorophenyl)ethyl)quinazolin-4-amine] | 10.7 ± 2.33 µM | – | 16.6 ± 6.59 µM | – | Emax [1, 5]: 66.4 ± 6.9%; HCC1395 Cytotoxicity Efficacy (HCC1395 cells): 51.1 ± 21.3%
CCN(Cc1cccc(OC)c1)c1ncnc2sccc12 [Compound 5i, N-ethyl-N-(3-methoxybenzyl)thieno[2,3-d]pyrimidin-4-amine] | – | – | 8.3 ± 3.79 µM | Toxic | HCC1395 Cytotoxicity Efficacy (HCC1395 cells): 64.1 ± 9.3%
COc1cccc(CNc2ncnc3c(C)csc23)c1 [Compound 10, N-(3-methoxybenzyl)-7-methylthieno[3,2-d]pyrimidin-4-amine] | > 100 µM | no longer active | > 100 µM | Inactive | IC50 [1, 8]: > 50 µM; GSK HCC1395 Renilla Comments (HCC1395 cells): Non-toxic
Fc1ccccc1CNc1ncnc2sccc12 [Compound 4e, N-(2-fluorobenzyl)thieno[2,3-d]pyrimidin-4-amine] | – | – | 7.45 ± 2.08 µM | Toxic | Cytotoxicity (Renilla) in words (HCC1395 cells): toxicity
COc1cccc(CNc2ccnc3ccccc23)c1 [Compound 16, N-(3-methoxybenzyl)quinolin-4-amine] | – | – | 18.7 µM | Toxic | HCC1395 Cytotoxicity Efficacy (HCC1395 cells): 39.4 ± 13.0%
COc1cccc(C(C)Nc2ncnc3sccc23)c1 (centres unmarked) [Compound 5b, N-(1-(3-methoxyphenyl)ethyl)thieno[2,3-d]pyrimidin-4-amine] | > 50 µM | inactive | – | – | GSK HCC1395 Renilla Comments (HCC1395 cells): Non-toxic
Clc1ccccc1CNc1ncnc2sccc12 [Compound 4h, N-(2-chlorobenzyl)thieno[2,3-d]pyrimidin-4-amine] | – | – | 8.61 ± 4.38 µM | Toxic | HCC1395 Cytotoxicity Efficacy (HCC1395 cells): 67.1 ± 7.8%
COc1cccc(CCNc2ncnc3sccc23)c1 [Compound 5n, N-(3-methoxyphenethyl)thieno[2,3-d]pyrimidin-4-amine] | > 50 µM | not tolerated | – | Inactive | –
COc1cccc(CNc2cc(Cl)ncn2)c1 [Compound 11, 6-chloro-N-(3-methoxybenzyl)pyrimidin-4-amine] | 58.2 ± 1.48 µM | no longer active | – | – | Emax [1, 5]: 100%; IC50 [1, 8]: > 50 µM
COc1cccc(CNc2ccncn2)c1 [Compound 12, N-(3-methoxybenzyl)pyrimidin-4-amine] | > 100 µM | no longer active | – | Inactive | IC50 [1, 8]: > 50 µM

The next lines start with results.

IC50 [1, 6] | TopFlash activity in words [1] | Compound | IC50 (in vitro; HCC1395 Cytotoxicity IC50) | GSK HCC1395 Comments [1] | further results
3.76 ± 1.9 µM | – | Cc1cccc(CNc2ncnc3sccc23)c1 [Compound 4n, N-(3-methylbenzyl)thieno[2,3-d]pyrimidin-4-amine] | > 50 µM | – | Emax [1, 5]: 52.9 ± 6.8%; IC50 (BT-20 TNBC cell line): 4.72 µM; IC50 (HCC1395 TNBC cell line): 1.05 µM; IC50 [2]: > 10 µM; MTT MDA-MB-231 Comments [2]: Inactive; IC50 (HCC1806 TNBC cell line; [7]): > 10 µM; MTT HCC1806 Comments (HCC1806 TNBC cell line; Table S2): Inactive; IC50 [3]: 0.48 µM; IC50 [4]: > 10 µM; MTT MCF10 Comments [4]: Inactive
3.19 ± 1.64 µM | – | Clc1ccc(CNc2ncnc3sccc23)cc1 [Compound 4j, N-(4-chlorobenzyl)thieno[2,3-d]pyrimidin-4-amine] | > 50 µM | – | Emax [1, 5]: 74.6 ± 12%; fold improvement in the activity compared to 4a ([1]; TopFlash IC50 vs 4a): 2 fold; IC50 (BT-20 TNBC cell line): 6.29 µM; IC50 (HCC1395 TNBC cell line): 1.42 µM; IC50 [2]: 45.3 µM; MTT MDA-MB-231 plateau [2]: 92.63; IC50 (HCC1806 TNBC cell line; [7]): 26.2 µM; IC50 [3]: 3.93 µM; IC50 [4]: 20.4 µM
> 50 µM | abrogated the activity | COc1ccc(CNc2ncnc3sccc23)cc1 [Compound 4d, N-(4-methoxybenzyl)thieno[2,3-d]pyrimidin-4-amine] | – | Inactive | IC50 (BT-20 TNBC cell line): 39.8 µM; IC50 (HCC1395 TNBC cell line): > 50 µM; IC50 [2]: > 50 µM; MTT MDA-MB-231 Comments [2]: Inactive; IC50 (HCC1806 TNBC cell line; Figure 3B heatmap, read-out: IC50, μM (HCC1806)): > 50 µM; IC50 (HCC1806 TNBC cell line; [7]): 46.5 µM; IC50 [3]: 14.2 µM; IC50 [4]: > 50 µM
> 50 µM | – | COc1cccc(C(=O)Nc2ncnc3sccc23)c1 [Compound 7, 3-methoxy-N-(thieno[2,3-d]pyrimidin-4-yl)benzamide] | – | Inactive | –
> 50 µM | – | N#Cc1ccccc1CNc1ncnc2sccc12 [Compound 4k, 2-((thieno[2,3-d]pyrimidin-4-ylamino)methyl)benzonitrile] | – | Inactive | –
> 50 µM | – | Fc1cccc(CNc2ncnc3sccc23)c1 [Compound 4f, N-(3-fluorobenzyl)thieno[2,3-d]pyrimidin-4-amine] | – | Inactive | –
> 50 µM | abrogated the activity | N#Cc1ccc(CNc2ncnc3sccc23)cc1 [Compound 4m, 4-((thieno[2,3-d]pyrimidin-4-ylamino)methyl)benzonitrile] | – | Inactive | GSK HCC1395 Renilla Comments (HCC1395 cells): Non-toxic
2.1 ± 1.64 µM | – | CC(Nc1ncnc2sccc12)c1ccc(F)cc1 (centres unmarked) [Compound 5c, N-(1-(4-fluorophenyl)ethyl)thieno[2,3-d]pyrimidin-4-amine] | > 50 µM | – | Emax [1, 5]: 46.9 ± 8.41%

Reference: paper PMC9649909, “Wnt-pathway inhibitors with selective activity against triple-negative breast cancer: From thienopyrimidine to quinazoline inhibitors” (Frontiers in Pharmacology, 2022)
